What was measured:
[1] = tested on: Human immunodeficiency virus; test: Antiviral activity against HIV LAI infected in human MT2 cells assessed as inhibition of viral growth; assay type: functional, organism-based; conditions: Human immunodeficiency virus 1, LAI
[2] = target: Human immunodeficiency virus type 1 protease (Human immunodeficiency virus 1, UniProt Q72874); test: Inhibition of HIV-1 protease expressed in Escherichia coli assessed as inhibition constant using Ac-Thr-Ile-Met-Met-Gln-Arg as substrate preincubated for 10 mins followed by substrate addition by HPLC analysis

| SMILES | IC50 [1] | Ki [2] |
| --- | --- | --- |
| COc1ccc(S(=O)(=O)N(CC(C)C)C[C@@H](O)[C@H](Cc2ccccc2)NC(=O)c2cc(C)cc(Nc3nc(-c4cccnc4)cs3)c2)cc1 | > 1000 nM | – |
| COc1ccc(S(=O)(=O)N(CC(C)C)C[C@@H](O)[C@H](Cc2ccccc2)NC(=O)c2cccc(Nc3nc(-c4cccnc4)cs3)c2C)cc1 | > 1000 nM | 19.3 nM |
| COc1ccc(S(=O)(=O)N(CC(C)C)C[C@@H](O)[C@H](Cc2ccccc2)NC(=O)c2ccc(C)c(Nc3nc(-c4cccnc4)cs3)c2C)cc1 | 510 nM | – |
| COc1ccc(S(=O)(=O)N(CC(C)C)C[C@@H](O)[C@H](Cc2cc(F)cc(F)c2)NC(=O)c2ccc(C)c(Nc3nccc(-c4cccnc4)n3)c2)cc1 | 124 nM | – |
| CC(C)CN(C[C@@H](O)[C@H](Cc1ccccc1)NC(=O)O[C@H]1CO[C@H]2OCC[C@H]21)S(=O)(=O)c1ccc(N)cc1 | 2.1 nM | – |
| COc1ccc(S(=O)(=O)N(CC(C)C)C[C@@H](O)[C@H](Cc2ccccc2)NC(=O)c2cc(Nc3nc(C)cs3)ccc2C)cc1 | > 1000 nM | – |
| COc1ccc(S(=O)(=O)N(CC(C)C)C[C@@H](O)[C@H](Cc2ccccc2)NC(=O)c2cc(Nc3nc(-c4cccnc4)cs3)ccc2C)cc1 | 580 nM | 8.7 nM |
| COc1ccc(S(=O)(=O)N(CC(C)C)C[C@@H](O)[C@H](Cc2ccccc2)NC(=O)c2ccc(C)c(Nc3nccc(-c4cccnc4)n3)c2)cc1 | 154 nM | 0.028 nM |
| COc1ccc(S(=O)(=O)N(CC(C)C)C[C@@H](O)[C@H](Cc2ccccc2)NC(=O)c2ccc(C)c(Nc3nc(C)cs3)c2)cc1 | > 1000 nM | 26.5 nM |
| Cc1ccc(C(=O)N[C@@H](Cc2ccccc2)[C@H](O)CN(CC(C)C)S(=O)(=O)c2ccc(N)cc2)cc1Nc1nccc(-c2cccnc2)n1 | 66.8 nM | – |
| COc1ccc(S(=O)(=O)N(CC(C)C)C[C@@H](O)[C@H](Cc2ccccc2)NC(=O)c2cc(C)cc(Nc3nc(C)cs3)c2)cc1 | > 1000 nM | – |
| COc1ccc(S(=O)(=O)N(CC(C)C)C[C@@H](O)[C@H](Cc2ccccc2)NC(=O)c2cccc(Nc3nc(C)cs3)c2C)cc1 | > 1000 nM | – |
| COc1ccc(S(=O)(=O)N(CC(C)C)C[C@@H](O)[C@H](Cc2ccccc2)NC(=O)c2ccc(C)c(Nc3nc(-c4cccnc4)cs3)c2)cc1 | 390 nM | – |
| COc1ccc(S(=O)(=O)N(CC(C)C)C[C@@H](O)[C@H](Cc2ccccc2)NC(=O)c2cccc(Nc3nc(C(F)(F)F)cs3)c2C)cc1 | > 1000 nM | – |
| COc1ccc(S(=O)(=O)N(CC(C)C)C[C@@H](O)[C@H](Cc2ccccc2)NC(=O)c2ccc(C)c(Nc3nc(C(F)(F)F)cs3)c2)cc1 | > 1000 nM | – |
| COCc1csc(Nc2ccc(C)c(C(=O)N[C@@H](Cc3ccccc3)[C@H](O)CN(CC(C)C)S(=O)(=O)c3ccc(OC)cc3)c2)n1 | 630 nM | – |
| Cc1ccc(C(=O)N[C@@H](Cc2cc(F)cc(F)c2)[C@H](O)CN(CC(C)C)S(=O)(=O)c2ccc(N)cc2)cc1Nc1nccc(-c2cccnc2)n1 | 212 nM | – |
